{
  "source": "paper PMC5218480",
  "about": "(PLoS ONE, 2017)",
  "system": "MV-4-11 cells",
  "test": "Gene expression microarray analysis (Affymetrix PrimeView) and GSEA",
  "format": "cell-based, human",
  "parameters": "RFU PODN (11730768_x_at) / Fold change /veh PODN (11730768_x_at) / RFU LINC00158 (11744669_a_at) / Fold change /veh LINC00158 (11744669_a_at) / RFU DUSP10 (11751237_a_at) / Fold change /veh DUSP10 (11751237_a_at) / RFU ID3 (11757404_x_at) / Fold change /veh ID3 (11757404_x_at) / RFU PLEKHG5 (11737974_s_at) / Fold change /veh PLEKHG5 (11737974_s_at) / RFU LRRC4B (11730491_at) / Fold change /veh LRRC4B (11730491_at) / RFU GIMAP4 (11747438_a_at) / Fold change /veh GIMAP4 (11747438_a_at) / RFU KRT8 (11758183_x_at) / Fold change /veh KRT8 (11758183_x_at) / RFU CNN1 (11734310_a_at) / Fold change /veh CNN1 (11734310_a_at) / RFU VPS37D (11726825_at) / Fold change /veh VPS37D (11726825_at) / RFU C10orf10 (11716522_x_at) / Fold change /veh C10orf10 (11716522_x_at) / RFU KIR2DL2 /// KIR2DL4 /// KIR2DL5A /// KIR2DL5B /// KIR2DS1 /// KIR2DS2 /// KIR2DS3 /// KIR2DS4 /// KIR3DL3 /// KIR3DL3 /// KIR3DS1 (11738374_at) / Fold change /veh KIR2DL2 /// KIR2DL4 /// KIR2DL5A /// KIR2DL5B /// KIR2DS1 /// KIR2DS2 /// KIR2DS3 /// KIR2DS4 /// KIR3DL3 /// KIR3DL3 /// KIR3DS1 (11738374_at) / RFU C1QL1 (11718748_at) / Fold change /veh C1QL1 (11718748_at) / RFU TMPRSS4 (11747572_a_at) / Fold change /veh TMPRSS4 (11747572_a_at) / RFU HAMP (11756126_x_at) / Fold change /veh HAMP (11756126_x_at) / RFU RNFT2 (11725882_a_at) / Fold change /veh RNFT2 (11725882_a_at) / RFU NR4A2 (11747474_a_at) / Fold change /veh NR4A2 (11747474_a_at) / RFU ABCC12 (11746883_a_at) / Fold change /veh ABCC12 (11746883_a_at) / RFU TMEM136 (11760407_x_at) / Fold change /veh TMEM136 (11760407_x_at) / RFU CLDN22 /// WWC2 (11732394_at) / Fold change /veh CLDN22 /// WWC2 (11732394_at) / RFU HLA-DPB1 (11760878_x_at) / Fold change /veh HLA-DPB1 (11760878_x_at) / RFU SPINT1 (11716480_a_at) / Fold change /veh SPINT1 (11716480_a_at) / RFU GAP43 (11754022_s_at) / Fold change /veh GAP43 (11754022_s_at) / RFU A4GNT (11735810_at) / Fold change /veh A4GNT (11735810_at) / RFU PRB3 (11715151_x_at) / Fold change /veh PRB3 (11715151_x_at) / RFU TUBB4B (11761932_at) / Fold change /veh TUBB4B (11761932_at) / RFU CAPN14 (11732068_a_at) / Fold change /veh CAPN14 (11732068_a_at) / RFU TMCC2 (11721928_a_at) / Fold change /veh TMCC2 (11721928_a_at) / RFU IRGQ (11745062_a_at) / Fold change /veh IRGQ (11745062_a_at) / RFU FAM174B (11720279_a_at) / Fold change /veh FAM174B (11720279_a_at) / RFU TMPRSS4 (11748680_a_at) / Fold change /veh TMPRSS4 (11748680_a_at) / RFU FAM212B (11763350_a_at) / Fold change /veh FAM212B (11763350_a_at) / RFU PLEKHG5 (11743358_a_at) / Fold change /veh PLEKHG5 (11743358_a_at) / RFU ZSCAN30 (11745921_a_at) / Fold change /veh ZSCAN30 (11745921_a_at) / RFU CMKLR1 (11741424_a_at) / Fold change /veh CMKLR1 (11741424_a_at) / RFU LOC101060620 /// MAPK8IP1 (11723275_at) / Fold change /veh LOC101060620 /// MAPK8IP1 (11723275_at) / RFU SPTSSB (11747773_x_at) / Fold change /veh SPTSSB (11747773_x_at) / RFU PRSS12 (11739890_at) / Fold change /veh PRSS12 (11739890_at) / RFU BIN1 (11741810_x_at) / Fold change /veh BIN1 (11741810_x_at) / RFU WNT11 (11732464_a_at) / Fold change /veh WNT11 (11732464_a_at) / RFU C10orf10 (11716521_a_at) / Fold change /veh C10orf10 (11716521_a_at) / RFU C5orf56 (11738089_at) / Fold change /veh C5orf56 (11738089_at) / RFU CYB561 (11721691_x_at) / Fold change /veh CYB561 (11721691_x_at) / RFU ANKRD19P (11752326_a_at) / Fold change /veh ANKRD19P (11752326_a_at) / RFU OR2T12 /// OR2T33 /// OR2T8 (11738714_s_at) / Fold change /veh OR2T12 /// OR2T33 /// OR2T8 (11738714_s_at) / RFU VCAN (11748164_a_at) / Fold change /veh VCAN (11748164_a_at) / RFU JSRP1 (11732532_at) / Fold change /veh JSRP1 (11732532_at) / RFU KRTAP10-11 (11738290_x_at) / Fold change /veh KRTAP10-11 (11738290_x_at) / RFU MYO3A (11730013_a_at) / Fold change /veh MYO3A (11730013_a_at) / RFU EBF3 (11725865_a_at) / Fold change /veh EBF3 (11725865_a_at) / RFU CAMK2N1 (11719241_x_at) / Fold change /veh CAMK2N1 (11719241_x_at) / RFU C5orf56 (11738088_a_at) / Fold change /veh C5orf56 (11738088_a_at) / RFU OLFML3 (11715873_a_at) / Fold change /veh OLFML3 (11715873_a_at) / RFU LOC100653217 /// NTM (11731650_a_at) / Fold change /veh LOC100653217 /// NTM (11731650_a_at) / RFU MAPK11 (11762145_a_at) / Fold change /veh MAPK11 (11762145_a_at) / RFU FIZ1 (11724087_x_at) / Fold change /veh FIZ1 (11724087_x_at) / RFU OASL (11726364_x_at) / Fold change /veh OASL (11726364_x_at) / RFU SOX15 (11748057_x_at) / Fold change /veh SOX15 (11748057_x_at) / RFU CD79A (11719716_a_at) / Fold change /veh CD79A (11719716_a_at) / RFU HIST1H1D (11736915_at) / Fold change /veh HIST1H1D (11736915_at) / RFU CASKIN2 (11723855_a_at) / Fold change /veh CASKIN2 (11723855_a_at) / RFU LOC730098 (11760151_x_at) / Fold change /veh LOC730098 (11760151_x_at) / RFU OR4N2 (11742367_at) / Fold change /veh OR4N2 (11742367_at) / RFU PRRT2 (11749266_a_at) / Fold change /veh PRRT2 (11749266_a_at) / RFU SNX32 (11753110_a_at) / Fold change /veh SNX32 (11753110_a_at) / RFU CDHR5 (11726645_a_at) / Fold change /veh CDHR5 (11726645_a_at) / RFU RCAN1 (11760418_a_at) / Fold change /veh RCAN1 (11760418_a_at) / RFU FAM167A (11723789_a_at) / Fold change /veh FAM167A (11723789_a_at) / RFU FAM26E (11764081_at) / Fold change /veh FAM26E (11764081_at) / RFU ISYNA1 (11749810_s_at) / Fold change /veh ISYNA1 (11749810_s_at) / RFU ACY1 (11761880_at) / Fold change /veh ACY1 (11761880_at) / RFU 11764098_at / Fold change /veh 11764098_at / RFU SAMD14 (11745864_x_at) / Fold change /veh SAMD14 (11745864_x_at) / RFU NPB (11741838_a_at) / Fold change /veh NPB (11741838_a_at) / RFU TMPRSS6 (11731388_a_at) / Fold change /veh TMPRSS6 (11731388_a_at) / RFU KRTAP10-2 (11738614_at) / Fold change /veh KRTAP10-2 (11738614_at) / RFU ARHGAP8 /// PRR5-ARHGAP8 (11727945_x_at) / Fold change /veh ARHGAP8 /// PRR5-ARHGAP8 (11727945_x_at) / RFU KRTAP5-7 /// NADSYN1 (11734609_at) / Fold change /veh KRTAP5-7 /// NADSYN1 (11734609_at) / RFU RASL12 (11751679_a_at) / Fold change /veh RASL12 (11751679_a_at) / RFU CDKN2B (11736163_a_at) / Fold change /veh CDKN2B (11736163_a_at) / RFU PRF1 (11729649_at) / Fold change /veh PRF1 (11729649_at) / RFU, ZNF638 /// ZNF638-IT1 / Fold change vs veh, ZNF638 /// ZNF638-IT1 / RFU, PANK3 / Fold change vs veh, PANK3 / RFU, SH3YL1 / Fold change vs veh, SH3YL1 / RFU, ZEB2 / Fold change vs veh, ZEB2 / RFU, NRIP1 / Fold change vs veh, NRIP1 / RFU, PTTG1IP / Fold change vs veh, PTTG1IP / RFU, CAPN2 / Fold change vs veh, CAPN2 / RFU, MED14 / Fold change vs veh, MED14 / RFU, SNORA58 / Fold change vs veh, SNORA58 / RFU, C1orf63 / Fold change vs veh, C1orf63 / RFU, LRRFIP1 / Fold change vs veh, LRRFIP1 / RFU, NDUFAF7 / Fold change vs veh, NDUFAF7 / RFU, SLC12A2 / Fold change vs veh, SLC12A2 / RFU, IBTK / Fold change vs veh, IBTK / RFU, ESF1 / Fold change vs veh, ESF1 / Fold change vs veh, TMEM50B / RFU, TAOK1 / Fold change vs veh, TAOK1 / RFU, ACBD3 / Fold change vs veh, ACBD3 / RFU, TMA16 / Fold change vs veh, TMA16 / RFU, RWDD3 / Fold change vs veh, RWDD3 / RFU, BCAT1 / Fold change vs veh, BCAT1 / RFU, EDEM3 / Fold change vs veh, EDEM3 / RFU, TMEM33 / Fold change vs veh, TMEM33 / RFU, WDR75 / Fold change vs veh, WDR75 / RFU, AHCTF1 / Fold change vs veh, AHCTF1 / RFU, TFRC / Fold change vs veh, TFRC / RFU, ZDHHC17 / Fold change vs veh, ZDHHC17 / RFU, NOM1 / Fold change vs veh, NOM1 / RFU, ARL8B / Fold change vs veh, ARL8B / RFU, ZBTB11 / Fold change vs veh, ZBTB11 / RFU, TAMM41 / Fold change vs veh, TAMM41 / RFU, KIAA1704 /// LOC100996395 / Fold change vs veh, KIAA1704 /// LOC100996395 / RFU, ING1 / Fold change vs veh, ING1 / RFU, TRMT61B / Fold change vs veh, TRMT61B / RFU, FUBP3 / Fold change vs veh, FUBP3 / RFU, TP53 / Fold change vs veh, TP53 / RFU, TNKS2 / Fold change vs veh, TNKS2 / RFU, ZFP14 / Fold change vs veh, ZFP14 / RFU, ACTR2 / Fold change vs veh, ACTR2 / RFU, PPP3R1 / Fold change vs veh, PPP3R1 / RFU, PIK3R1 / Fold change vs veh, PIK3R1 / RFU, HNRNPA1 / Fold change vs veh, HNRNPA1 / RFU, RNF170 / Fold change vs veh, RNF170 / RFU, ZNF28 / Fold change vs veh, ZNF28 / RFU, RNGTT / Fold change vs veh, RNGTT / RFU, OGT / Fold change vs veh, OGT / RFU, BRD1 / Fold change vs veh, BRD1 / RFU, MARS / Fold change vs veh, MARS / RFU, ZNF655 / Fold change vs veh, ZNF655 / RFU, FAHD1 / Fold change vs veh, FAHD1 / RFU, BDP1 / Fold change vs veh, BDP1 / RFU, LRRCC1 / Fold change vs veh, LRRCC1 / RFU, ARID1A / Fold change vs veh, ARID1A / RFU, ZNF146 / Fold change vs veh, ZNF146 / RFU, ZNF330 / Fold change vs veh, ZNF330 / RFU, GPN3 / Fold change vs veh, GPN3 / RFU, C9orf123 / Fold change vs veh, C9orf123 / RFU, N4BP2L2 / Fold change vs veh, N4BP2L2 / RFU, ARFIP1 / Fold change vs veh, ARFIP1 / RFU, FAM179B / Fold change vs veh, FAM179B / RFU, BCL10 / Fold change vs veh, BCL10 / RFU, UHRF1BP1L / Fold change vs veh, UHRF1BP1L / RFU, BET1 / Fold change vs veh, BET1 / RFU, CNOT2 / Fold change vs veh, CNOT2 / RFU, ZNF268 / Fold change vs veh, ZNF268 / Fold change vs veh, ZNF507 / RFU, DGCR2 / Fold change vs veh, DGCR2 / RFU, WDSUB1 / Fold change vs veh, WDSUB1 / Fold change vs veh, HSP90B1 /// MIR3652 / RFU, ADSS / Fold change vs veh, ADSS / RFU, GK / Fold change vs veh, GK / RFU, ZNF148 / Fold change vs veh, ZNF148 / RFU, TAF9 / Fold change vs veh, TAF9 / RFU, SLC1A5 / Fold change vs veh, SLC1A5 / RFU, SLMO2 / Fold change vs veh, SLMO2 / RFU, ABCC4 / Fold change vs veh, ABCC4 / RFU, LOC101060439 /// RAP1B / Fold change vs veh, LOC101060439 /// RAP1B / RFU, RFX7 / Fold change vs veh, RFX7 / RFU, GTPBP10 / Fold change vs veh, GTPBP10 / RFU, CNEP1R1 / Fold change vs veh, CNEP1R1 / RFU, BIVM-ERCC5 /// ERCC5 / Fold change vs veh, BIVM-ERCC5 /// ERCC5 / RFU, ILF3 / Fold change vs veh, ILF3 / RFU 11762660_at / Fold change /veh 11762660_at / RFU VCAN (11757783_s_at) / Fold change /veh VCAN (11757783_s_at) / RFU DDX43 (11728927_at) / Fold change /veh DDX43 (11728927_at) / RFU KRT8 (11758188_x_at) / Fold change /veh KRT8 (11758188_x_at) / RFU NKD1 (11759106_at) / Fold change /veh NKD1 (11759106_at) / RFU SRD5A1 (11742802_a_at) / Fold change /veh SRD5A1 (11742802_a_at) / RFU TPSAB1 /// TPSB2 (11721975_s_at) / Fold change /veh TPSAB1 /// TPSB2 (11721975_s_at) / RFU GSTM3 (11746129_a_at) / Fold change /veh GSTM3 (11746129_a_at) / RFU IL23R (11737362_x_at) / Fold change /veh IL23R (11737362_x_at) / RFU TMEM51 (11727254_a_at) / Fold change /veh TMEM51 (11727254_a_at) / RFU PIWIL2 (11732686_x_at) / Fold change /veh PIWIL2 (11732686_x_at) / RFU ORM1 (11744905_x_at) / Fold change /veh ORM1 (11744905_x_at) / RFU CCDC152 (11743942_at) / Fold change /veh CCDC152 (11743942_at) / RFU ECM1 (11717891_a_at) / Fold change /veh ECM1 (11717891_a_at) / RFU IL23R (11748794_a_at) / Fold change /veh IL23R (11748794_a_at) / RFU TNFAIP8L3 (11732012_x_at) / Fold change /veh TNFAIP8L3 (11732012_x_at) / RFU MBOAT4 (11741988_at) / Fold change /veh MBOAT4 (11741988_at) / RFU 11764193_at / Fold change /veh 11764193_at / RFU TMEM53 (11763286_at) / Fold change /veh TMEM53 (11763286_at) / RFU MAGEB2 (11727129_at) / Fold change /veh MAGEB2 (11727129_at) / RFU TMEM200A (11744735_a_at) / Fold change /veh TMEM200A (11744735_a_at) / RFU CCDC152 (11751479_a_at) / Fold change /veh CCDC152 (11751479_a_at) / RFU FAM211A (11726209_a_at) / Fold change /veh FAM211A (11726209_a_at) / RFU RGS16 (11746705_a_at) / Fold change /veh RGS16 (11746705_a_at) / RFU VCAN (11755009_s_at) / Fold change /veh VCAN (11755009_s_at) / RFU RHOB (11743442_s_at) / Fold change /veh RHOB (11743442_s_at) / RFU RGS16 (11720943_a_at) / Fold change /veh RGS16 (11720943_a_at) / RFU RGS16 (11720944_at) / Fold change /veh RGS16 (11720944_at) / RFU, VPS4B / Fold change vs veh, VPS4B / RFU, CREB1 / Fold change vs veh, CREB1 / RFU, DNAJC13 / Fold change vs veh, DNAJC13 / RFU, GNAQ / Fold change vs veh, GNAQ / RFU, CDK5R1 / Fold change vs veh, CDK5R1 / RFU, ZRANB3 / Fold change vs veh, ZRANB3 / RFU, CUL4A / Fold change vs veh, CUL4A / RFU, CCNY / Fold change vs veh, CCNY / RFU, UFL1 / Fold change vs veh, UFL1 / RFU, COG3 / Fold change vs veh, COG3 / RFU, DIAPH2 / Fold change vs veh, DIAPH2 / RFU, SKA2 / Fold change vs veh, SKA2 / RFU, AFF3 / Fold change vs veh, AFF3 / RFU, LMF1 / Fold change vs veh, LMF1 / RFU, IPO11 / Fold change vs veh, IPO11 / RFU, DFFB / Fold change vs veh, DFFB / RFU, FOXP1 / Fold change vs veh, FOXP1 / RFU, CARD8 / Fold change vs veh, CARD8 / RFU, STRN3 / Fold change vs veh, STRN3 / RFU, ADK / Fold change vs veh, ADK / RFU, RASSF2 / Fold change vs veh, RASSF2 / RFU, WIPF1 / Fold change vs veh, WIPF1 / RFU, LARP1B / Fold change vs veh, LARP1B / RFU, RASA1 / Fold change vs veh, RASA1 / RFU, RB1 / Fold change vs veh, RB1 / RFU, PPFIA1 / Fold change vs veh, PPFIA1 / RFU, MAT2A / Fold change vs veh, MAT2A / RFU, CCT5 / Fold change vs veh, CCT5 / RFU, WDR92 / Fold change vs veh, WDR92 / RFU, CUX1 / Fold change vs veh, CUX1 / RFU, TTC7A / Fold change vs veh, TTC7A / RFU, TMEM135 / Fold change vs veh, TMEM135 / RFU, DEPTOR / Fold change vs veh, DEPTOR / RFU, CPM / Fold change vs veh, CPM / RFU, DNAJB6 / Fold change vs veh, DNAJB6 / RFU, CACNA2D3 / Fold change vs veh, CACNA2D3 / RFU, DTX4 / Fold change vs veh, DTX4 / RFU, TFCP2 / Fold change vs veh, TFCP2 / RFU, GMCL1 /// GMCL1P1 / Fold change vs veh, GMCL1 /// GMCL1P1 / RFU, AEBP2 / Fold change vs veh, AEBP2 / RFU, SNHG1 /// SNORD22 /// SNORD25 /// SNORD26 /// SNORD27 /// SNORD28 /// SNORD29 /// SNORD31 / Fold change vs veh, SNHG1 /// SNORD22 /// SNORD25 /// SNORD26 /// SNORD27 /// SNORD28 /// SNORD29 /// SNORD31 / Fold change (Aza/veh), C12orf56 (ProbeSet 11735607_a_at) / Fold change (ACY-1035/veh), C12orf56 (ProbeSet 11735607_a_at) / Fold change (Aza/veh), FGFR1OP (ProbeSet 11751329_s_at) / Fold change (ACY-1035/veh), FGFR1OP (ProbeSet 11751329_s_at) / Fold change (Aza/veh), VPS36 (ProbeSet 11739960_a_at) / Fold change (ACY-1035/veh), VPS36 (ProbeSet 11739960_a_at) / RFU SYPL1 (11715823_x_at) / Fold change /veh SYPL1 (11715823_x_at) / RFU IGFBP7 (11715501_s_at) / Fold change /veh IGFBP7 (11715501_s_at) / RFU REEP3 (11722064_at) / Fold change /veh REEP3 (11722064_at) / RFU IGLL1 (11728026_x_at) / Fold change /veh IGLL1 (11728026_x_at): dose or concentration left out as unconfirmed",
  "details": "ProbeSet 11749477_a_at; LIST B",
  "data": [
    {"smiles": "Nc1ncn([C@@H]2O[C@H](CO)[C@@H](O)[C@H]2O)c(=O)n1", "note": "[azacitidine]", "values": [
      {"measurement": "RFU, EDEM3", "value": 49.32, "unit": "RFU"}
    ]}
  ]
}
